From ChEMBL document CHEMBL1135510, “Common and selective molecular determinants involved in metabotopic glutamate receptor agonist activity” (J Med Chem, 2002)

Key:
[1] = target: T1, Metabotropic glutamate receptor 2 (Homo sapiens, UniProt Q14416); experiment: Binding affinity at Metabotropic glutamate receptor 2; set-up: species or system Rattus norvegicus
Target sequence in this assay (Q14416 whole entry): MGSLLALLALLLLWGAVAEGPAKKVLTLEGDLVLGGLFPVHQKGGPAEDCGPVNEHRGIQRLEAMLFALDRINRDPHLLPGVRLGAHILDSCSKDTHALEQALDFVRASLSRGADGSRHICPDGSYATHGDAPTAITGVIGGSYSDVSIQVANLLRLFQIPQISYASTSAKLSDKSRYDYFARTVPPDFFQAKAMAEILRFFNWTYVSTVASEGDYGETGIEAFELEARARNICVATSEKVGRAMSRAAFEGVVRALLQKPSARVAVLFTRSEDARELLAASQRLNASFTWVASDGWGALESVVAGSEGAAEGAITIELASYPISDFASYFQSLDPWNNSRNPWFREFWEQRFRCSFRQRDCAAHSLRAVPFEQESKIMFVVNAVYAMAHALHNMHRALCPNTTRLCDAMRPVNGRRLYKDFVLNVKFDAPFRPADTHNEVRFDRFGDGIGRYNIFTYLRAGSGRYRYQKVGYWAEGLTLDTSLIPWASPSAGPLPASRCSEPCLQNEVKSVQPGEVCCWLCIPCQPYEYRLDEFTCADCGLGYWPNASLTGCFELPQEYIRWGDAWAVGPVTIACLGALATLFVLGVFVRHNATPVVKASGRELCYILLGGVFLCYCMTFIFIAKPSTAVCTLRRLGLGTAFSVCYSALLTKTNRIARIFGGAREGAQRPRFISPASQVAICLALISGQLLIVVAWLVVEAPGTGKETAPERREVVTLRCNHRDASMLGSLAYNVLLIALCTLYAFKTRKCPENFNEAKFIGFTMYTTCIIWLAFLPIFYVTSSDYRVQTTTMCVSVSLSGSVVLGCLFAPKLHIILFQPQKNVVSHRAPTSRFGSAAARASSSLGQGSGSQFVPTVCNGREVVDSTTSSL

[2] = target: T1, Metabotropic glutamate receptor 2; experiment: Potency at Metabotropic glutamate receptor 2, measured as the ratio of EC50 to IC50; No effect at 1 mM
Target sequence in this assay (Q14416 19-872 limits assumed): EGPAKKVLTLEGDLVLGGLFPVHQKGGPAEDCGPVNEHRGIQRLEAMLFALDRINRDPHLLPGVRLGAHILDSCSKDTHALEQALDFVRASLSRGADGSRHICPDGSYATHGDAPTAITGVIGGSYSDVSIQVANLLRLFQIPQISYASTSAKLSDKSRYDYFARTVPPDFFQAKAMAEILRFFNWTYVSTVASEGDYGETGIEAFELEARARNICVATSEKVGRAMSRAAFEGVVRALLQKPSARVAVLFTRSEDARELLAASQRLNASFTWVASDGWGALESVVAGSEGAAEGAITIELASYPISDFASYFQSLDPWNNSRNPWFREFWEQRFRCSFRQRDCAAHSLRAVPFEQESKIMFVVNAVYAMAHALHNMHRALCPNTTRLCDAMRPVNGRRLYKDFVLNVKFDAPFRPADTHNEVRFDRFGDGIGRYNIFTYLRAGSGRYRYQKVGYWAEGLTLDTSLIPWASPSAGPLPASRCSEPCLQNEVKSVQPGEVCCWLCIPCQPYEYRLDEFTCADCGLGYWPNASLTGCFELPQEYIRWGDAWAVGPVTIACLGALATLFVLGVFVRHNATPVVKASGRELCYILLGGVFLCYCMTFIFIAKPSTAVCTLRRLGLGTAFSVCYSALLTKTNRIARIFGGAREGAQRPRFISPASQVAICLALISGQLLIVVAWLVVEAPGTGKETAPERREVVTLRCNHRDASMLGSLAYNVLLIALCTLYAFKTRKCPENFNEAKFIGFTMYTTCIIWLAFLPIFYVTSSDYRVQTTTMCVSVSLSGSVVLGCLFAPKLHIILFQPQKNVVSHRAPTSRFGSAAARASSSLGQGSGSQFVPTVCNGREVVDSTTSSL

[3] = target: Metabotropic glutamate receptor 1 (Homo sapiens) (UniProt Q13255); experiment: Potency at Metabotropic glutamate receptor 1, measured as the ratio of EC50 to IC50; No effect at 1 mM
Metabotropic glutamate receptor 1 (Homo sapiens), sequence (Q13255 19-1194 limits assumed): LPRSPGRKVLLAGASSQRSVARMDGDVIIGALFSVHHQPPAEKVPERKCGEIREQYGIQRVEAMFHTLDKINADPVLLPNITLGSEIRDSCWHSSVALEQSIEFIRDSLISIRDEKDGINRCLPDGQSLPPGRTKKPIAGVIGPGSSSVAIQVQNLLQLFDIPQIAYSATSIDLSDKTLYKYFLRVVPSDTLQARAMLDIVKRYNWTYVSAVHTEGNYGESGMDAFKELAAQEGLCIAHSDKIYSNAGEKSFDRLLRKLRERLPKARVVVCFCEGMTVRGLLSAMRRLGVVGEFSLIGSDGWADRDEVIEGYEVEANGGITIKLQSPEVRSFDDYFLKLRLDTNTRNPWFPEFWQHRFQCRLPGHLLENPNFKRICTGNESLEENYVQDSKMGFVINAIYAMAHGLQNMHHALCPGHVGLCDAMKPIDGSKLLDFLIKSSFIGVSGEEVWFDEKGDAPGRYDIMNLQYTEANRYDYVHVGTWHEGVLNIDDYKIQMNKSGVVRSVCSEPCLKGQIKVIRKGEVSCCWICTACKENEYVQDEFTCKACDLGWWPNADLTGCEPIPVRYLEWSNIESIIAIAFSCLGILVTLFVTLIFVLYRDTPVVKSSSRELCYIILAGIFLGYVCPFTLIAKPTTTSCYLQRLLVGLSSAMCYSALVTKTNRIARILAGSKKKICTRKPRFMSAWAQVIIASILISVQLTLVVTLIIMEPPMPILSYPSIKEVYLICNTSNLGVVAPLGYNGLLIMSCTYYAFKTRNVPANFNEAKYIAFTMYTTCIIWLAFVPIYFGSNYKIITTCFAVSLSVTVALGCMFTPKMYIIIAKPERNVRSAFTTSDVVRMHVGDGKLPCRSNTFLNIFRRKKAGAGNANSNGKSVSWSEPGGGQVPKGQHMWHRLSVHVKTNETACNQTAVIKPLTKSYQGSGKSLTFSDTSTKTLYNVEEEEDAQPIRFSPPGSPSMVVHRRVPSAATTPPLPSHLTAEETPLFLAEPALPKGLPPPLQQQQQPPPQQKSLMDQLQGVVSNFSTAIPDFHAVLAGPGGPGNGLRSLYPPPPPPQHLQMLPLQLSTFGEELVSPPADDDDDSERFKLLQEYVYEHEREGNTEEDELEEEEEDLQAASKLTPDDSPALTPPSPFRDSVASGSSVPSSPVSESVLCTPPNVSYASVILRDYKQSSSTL

[4] = target: Metabotropic glutamate receptor 1 (Rattus norvegicus, UniProt P23385); experiment: Inhibition of binding to rat mGluR1a (metabotropic glutamate receptor) expressed in HEK-293 cells; assay type: cell-based, HEK293
Metabotropic glutamate receptor 1, sequence (P23385 whole entry): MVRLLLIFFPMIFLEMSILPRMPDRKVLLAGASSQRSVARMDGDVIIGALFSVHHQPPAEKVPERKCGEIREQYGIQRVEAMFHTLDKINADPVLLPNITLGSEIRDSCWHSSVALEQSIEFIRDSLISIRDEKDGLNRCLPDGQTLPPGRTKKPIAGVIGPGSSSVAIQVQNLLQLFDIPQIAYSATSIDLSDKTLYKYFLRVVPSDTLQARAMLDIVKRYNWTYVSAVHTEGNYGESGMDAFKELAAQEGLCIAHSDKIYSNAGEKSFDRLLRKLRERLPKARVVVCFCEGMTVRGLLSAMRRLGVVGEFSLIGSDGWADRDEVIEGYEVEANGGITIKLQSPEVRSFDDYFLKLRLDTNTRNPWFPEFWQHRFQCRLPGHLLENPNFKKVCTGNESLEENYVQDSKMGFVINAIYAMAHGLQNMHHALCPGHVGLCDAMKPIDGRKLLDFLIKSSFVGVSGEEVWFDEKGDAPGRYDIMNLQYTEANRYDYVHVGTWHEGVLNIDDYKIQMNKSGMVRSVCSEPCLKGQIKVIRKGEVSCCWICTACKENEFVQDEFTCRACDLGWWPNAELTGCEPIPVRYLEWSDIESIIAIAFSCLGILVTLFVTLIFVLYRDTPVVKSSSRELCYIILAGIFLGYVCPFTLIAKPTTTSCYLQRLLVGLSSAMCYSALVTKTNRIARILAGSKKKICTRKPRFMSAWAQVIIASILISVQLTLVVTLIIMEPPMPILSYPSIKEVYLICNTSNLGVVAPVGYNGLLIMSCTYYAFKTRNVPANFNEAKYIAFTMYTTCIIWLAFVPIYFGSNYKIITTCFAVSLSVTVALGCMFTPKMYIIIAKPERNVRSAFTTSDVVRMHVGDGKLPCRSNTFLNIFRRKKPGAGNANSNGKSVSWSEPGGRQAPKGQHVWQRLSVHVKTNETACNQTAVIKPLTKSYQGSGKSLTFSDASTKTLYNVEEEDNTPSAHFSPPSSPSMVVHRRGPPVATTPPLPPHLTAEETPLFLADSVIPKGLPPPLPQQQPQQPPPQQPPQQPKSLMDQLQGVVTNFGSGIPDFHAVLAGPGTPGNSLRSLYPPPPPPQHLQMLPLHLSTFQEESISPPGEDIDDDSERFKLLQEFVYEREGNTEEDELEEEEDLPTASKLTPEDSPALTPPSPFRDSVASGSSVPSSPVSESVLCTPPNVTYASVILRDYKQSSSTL

[5] = target: T1, Metabotropic glutamate receptor 2; experiment: Potency at metabotropic glutamate receptor 2, measured as the ratio of EC50 to IC50; No effect at 1 mM
Target sequence in this assay (Q14416 19-872 limits assumed): as the sequence (Q14416 19-872 limits assumed) above

[6] = target: T2, Metabotropic glutamate receptor 4 (Homo sapiens, UniProt Q14833); experiment: Potency at metabotropic glutamate receptor 4, measured as the ratio of EC50 to IC50; No effect at 1 mM
T2 sequence (Q14833 whole entry): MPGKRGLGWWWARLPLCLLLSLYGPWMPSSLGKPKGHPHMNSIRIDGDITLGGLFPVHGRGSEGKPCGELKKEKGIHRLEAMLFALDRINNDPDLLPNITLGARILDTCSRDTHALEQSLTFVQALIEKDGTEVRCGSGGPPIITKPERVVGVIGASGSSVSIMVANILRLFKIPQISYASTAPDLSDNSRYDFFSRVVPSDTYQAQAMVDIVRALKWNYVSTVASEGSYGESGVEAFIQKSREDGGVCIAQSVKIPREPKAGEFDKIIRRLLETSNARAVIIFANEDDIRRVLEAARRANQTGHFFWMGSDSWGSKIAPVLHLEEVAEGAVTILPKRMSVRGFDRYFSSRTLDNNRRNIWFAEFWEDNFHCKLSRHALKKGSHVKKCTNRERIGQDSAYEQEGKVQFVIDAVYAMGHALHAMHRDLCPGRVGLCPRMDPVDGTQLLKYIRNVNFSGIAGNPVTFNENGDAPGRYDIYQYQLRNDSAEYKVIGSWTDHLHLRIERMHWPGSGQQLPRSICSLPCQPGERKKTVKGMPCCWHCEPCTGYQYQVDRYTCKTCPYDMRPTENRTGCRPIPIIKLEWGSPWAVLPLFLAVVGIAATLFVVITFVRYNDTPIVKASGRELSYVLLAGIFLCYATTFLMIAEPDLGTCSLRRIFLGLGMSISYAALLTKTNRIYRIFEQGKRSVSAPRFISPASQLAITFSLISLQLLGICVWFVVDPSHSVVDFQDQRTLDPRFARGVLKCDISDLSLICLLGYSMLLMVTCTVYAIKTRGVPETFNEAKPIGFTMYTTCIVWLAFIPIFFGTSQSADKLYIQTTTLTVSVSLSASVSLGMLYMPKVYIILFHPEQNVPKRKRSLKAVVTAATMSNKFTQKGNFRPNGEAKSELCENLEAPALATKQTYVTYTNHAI

[7] = target: T2, Metabotropic glutamate receptor 4; experiment: Binding affinity at Metabotropic glutamate receptor 4; set-up: species or system Rattus norvegicus
[8] = target: Metabotropic glutamate receptor 1 (Homo sapiens) (UniProt Q13255); experiment: Potency at metabotropic glutamate receptor 1, measured as the ratio of EC50 to IC50; No effect at 1 mM

SMILES | Ki [1] [µM] | Ki [4] [µM] | Ki [7] [µM] | further results
N[C@@]1(C(=O)O)CC[C@H]2[C@H](C(=O)O)[C@H]21 | 0.013 | – | – | –
N[C@@]1(C(=O)O)C[C@H](C(=O)O)[C@H](C(=O)O)C1 | – | – | – | NE [2]: No effect at 1 mM; NE [3]: No effect at 1 mM
N[C@H](C(=O)O)c1cc(O)cc(O)c1 | > 1000 | 0.9 | – | NE [5]: No effect at 1 mM; NE [6]: No effect at 1 mM
N[C@H](C(=O)O)C1[C@@H](C(=O)O)[C@@H]1C(=O)O (some centres undefined) | 0.11 | 77 | – | –
N[C@H](C(=O)O)c1ccc(P(=O)(O)O)cc1 | – | – | – | NE [2]: No effect at 1 mM; NE [3]: No effect at 1 mM
N[C@@H](Cn1oc(=O)[nH]c1=O)C(=O)O [QUISQUALATE] | 113 | – | 112 | –
N[C@H](C(=O)O)c1ccc(C(=O)O)cc1 | – | 3.7 | 838 | –
N[C@@H](CCP(=O)(O)O)C(=O)O | 129 | > 1000 | 0.47 | NE [8]: No effect at 1 mM
